For this experiment, the target named is T1, Dimer of Gag-Pol polyprotein [501-599,Q508K,L534I,L564I,C568A,C596A] (Human immunodeficiency virus 1, UniProt P03367, C568A/C596A/L534I/L564I/Q508K).
T1 construct: 501-599
The experiment in a line: Protease Inhibition Assay. To be noted: pH 6.4; 25 °C. The procedure:
The Ki values were determined using fluorogenic substrate, 2-(aminobenzoyl)-Thr-Ile-Nle-Phe(p-NO2)-Gln-ArgNH2. A standard curve relating changes in fluorescent intensity to changes in concentration of product was used to convert fluorescent changes into molar velocities. The amount of cleavage was determined by HPLC.

`O=C(N[C@H]1c2ccccc2C[C@H]1O)[C@H](Cc1ccccc1)C[C@H](O)CN1C(=O)N(Cc2ccccn2)C[C@@H]1Cc1ccccc1` [(2R,4S)-2-benzyl-5-[(5S)-5-benzyl-2-oxo-3-(pyridin-2-ylmethyl)imidazolidin-1-yl]-4-hydroxy-N-[(1S,2R)-2-hydroxy-2,3-dihydro-1H-inden-1-yl]pentanamide] yielded a Ki of 41 nM. Turning to `O=C(N[C@H]1c2ccccc2C[C@H]1O)[C@H](Cc1ccccc1)C[C@H](O)CN1C(=O)N(Cc2cccnc2)C[C@@H]1Cc1ccccc1` [(2R,4S)-2-benzyl-5-[(5S)-5-benzyl-2-oxo-3-(pyridin-3-ylmethyl)imidazolidin-1-yl]-4-hydroxy-N-[(1S,2R)-2-hydroxy-2,3-dihydro-1H-inden-1-yl]pentanamide], the affinity corresponds to a Ki of 18 nM. This Ki lies about 2.3-fold lower than the previous one. The value for `O=C(N[C@H]1c2ccccc2C[C@H]1O)[C@H](Cc1ccccc1)C[C@H](O)CN1C(=O)N(Cc2ccncc2)C[C@@H]1Cc1ccccc1` [(2R,4S)-2-benzyl-5-[(5S)-5-benzyl-2-oxo-3-(pyridin-4-ylmethyl)imidazolidin-1-yl]-4-hydroxy-N-[(1S,2R)-2-hydroxy-2,3-dihydro-1H-inden-1-yl]pentanamide] was 190 nM. With `COc1cc(CN2C[C@H](Cc3ccccc3)N(C[C@@H](O)C[C@@H](Cc3ccccc3)C(=O)N[C@H]3c4ccccc4C[C@H]3O)C2=O)cc(OC)c1OC` [(2R,4S)-2-benzyl-5-[(5S)-5-benzyl-2-oxo-3-[(3,4,5-trimethoxyphenyl)methyl]imidazolidin-1-yl]-4-hydroxy-N-[(1S,2R)-2-hydroxy-2,3-dihydro-1H-inden-1-yl]pentanamide] the figure was 100 nM; with `O=C(N[C@H]1c2ccccc2C[C@H]1O)[C@H](Cc1ccccc1)C[C@H](O)CN1C(=O)N(Cc2cccc(F)c2)C[C@@H]1Cc1ccccc1` [(2R,4S)-2-benzyl-5-[(5S)-5-benzyl-3-[(3-fluorophenyl)methyl]-2-oxoimidazolidin-1-yl]-4-hydroxy-N-[(1S,2R)-2-hydroxy-2,3-dihydro-1H-inden-1-yl]pentanamide], 3.2 nM.

Compound `CS(=O)(=O)c1ccc(CN2C[C@H](Cc3ccccc3)N(C[C@@H](O)C[C@@H](Cc3ccccc3)C(=O)N[C@H]3c4ccccc4C[C@H]3O)C2=O)cc1` [(2R,4S)-2-benzyl-5-[(5S)-5-benzyl-3-[(4-methanesulfonylphenyl)methyl]-2-oxoimidazolidin-1-yl]-4-hydroxy-N-[(1S,2R)-2-hydroxy-2,3-dihydro-1H-inden-1-yl]pentanamide] showed an inhibition constant (Ki) of 300 nM. Consider `COc1ccc(CN2C[C@H](Cc3ccccc3)N(C[C@@H](O)C[C@@H](Cc3ccccc3)C(=O)N[C@H]3c4ccccc4C[C@H]3O)C2=O)cc1` [(2R,4S)-2-benzyl-5-[(5S)-5-benzyl-3-[(4-methoxyphenyl)methyl]-2-oxoimidazolidin-1-yl]-4-hydroxy-N-[(1S,2R)-2-hydroxy-2,3-dihydro-1H-inden-1-yl]pentanamide], for which the Ki stood at 5.6 nM.

The Ki is the equilibrium dissociation constant of an inhibitor or competing ligand from its target.

Source of the values: BindingDB's records for doi:10.1016/j.bmcl.2004.08.038 (Glaxosmithkline, 2004).
